Test results taken from US10005767B2, “Compositions and methods for inhibition of the JAK pathway” (Rigel Pharmaceuticals, Inc., priority 2009, dated 2018).

What follows are compounds tested on human primary T-cells, IL-2 stimulated proliferation (JAK-1 and JAK-3 dependent; reported as JAK3 activity) (assay: Human primary T-cell proliferation stimulated by IL-2 (Example 3)). Conditions: Homo sapiens, T-cell, tested under conditions described in Example 3 (IL-2 stimulated human primary T-cell proliferation); read-out: ability to inhibit JAK3 activity, IC50 range (Table V).
Type: cell-based
In short: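 Peripheral-blood human T-cells pre-activated via TCR/CD28, IL-2-starved overnight, then cultured 72 h at 37 °C with compound in Yssel's medium containing IL-2 (80 U/mL in cell suspension). Proliferation read as viable-cell ATP by CellTiter-Glo luminescence; reduction versus control taken as JAK pathway inhibition.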

With `Cc1cnc(Nc2ccc(N3CCN(C(=O)OC(C)(C)C)CC3)nc2)nc1Nc1ccc2oc(=O)[nH]c2c1` [II-5, N4-(benzo[d]oxazol-2(3H)-on-5-yl)-N2-(6-(4-tert-butyloxycarbonylpiperazin-1-yl)pyridin-3-yl)-5-methylpyrimidine-2,4-diamine] as the compound, how does the IC50 read?
Its IC50 is less than 500 nM.

Which IC50 does the source give for `Cc1cnc(Nc2ccc(N3CCC(C)CC3)nc2)nc1Nc1ccc2oc(=O)[nH]c2c1` [II-6, N4-(benzo[d]oxazol-2(3H)-on-5-yl)-N2-(6-(4-methylpiperidin-1-yl)pyridin-3-yl)-5-methylpyrimidine-2,4-diamine] here?
The IC50 was greater than 10000 nM.

How did the IC50 turn out when `Cc1cnc(Nc2ccc(N3CCN(C)CC3)nc2)nc1Nc1ccc2oc(=O)n(C(C)C)c2c1` [II-7, N2-(6-(4-methylpiperazin-1-yl)pyridin-3-yl)-N4-(3-isopropylbenzo[d]oxazol-2(3H)-on-5-yl)-5-methylpyrimidine-2,4-diamine] was run?
The IC50 was less than 500 nM.

How did the IC50 turn out when `Cc1cnc(Nc2ccc(N3CCN(C(=O)OC(F)(F)F)CC3)nc2)nc1Nc1ccc2oc(=O)[nH]c2c1` [II-8, N4-(benzo[d]oxazol-2(3H)-on-5-yl)-N2-(6-(4-trifluoromethoxycarbonylpiperazin-1-yl)pyridin-3-yl)-5-methylpyrimidine-2,4-diamine] was run?
The IC50 was less than 500 nM.

With `COC(=O)N1CCN(c2ccc(Nc3ncc(C)c(Nc4ccc5oc(=O)[nH]c5c4)n3)cn2)CC1` [II-9, N4-(benzo[d]oxazol-2(3H)-on-5-yl)-N2-(6-(4-methoxycarbonylpiperazin-1-yl)pyridin-3-yl)-5-methylpyrimidine-2,4-diamine] as the compound, how does the IC50 read?
The IC50 was less than 500 nM.

How did the IC50 turn out when `Cc1cnc(Nc2ccc(N3CCNCC3)nc2)nc1Nc1ccc2oc(=O)[nH]c2c1` [II-10, N4-(benzo[d]oxazol-2(3H)-on-5-yl)-N2-(6-(piperazin-1-yl)pyridin-3-yl)-5-methylpyrimidine-2,4-diamine] was run?
The IC50 was less than 500 nM.

`Cc1cnc(Nc2ccc(N3CCN(C(=O)OC(C)(C)C)C(C)C3)nc2)nc1Nc1ccc2oc(=O)[nH]c2c1` (centres unmarked) [II-11, N4-(benzo[d]oxazol-2(3H)-on-5-yl)-N2-(6-(3-methyl-4-tert-butoxycarbonylpiperazin-1-yl)pyridin-3-yl)-5-methylpyrimidine-2,4-diamine] was tested. Which IC50 did it give?
The IC50 was less than 500 nM.

How did the IC50 turn out when `Cc1cnc(Nc2ccc(N3CCNC(C)C3)nc2)nc1Nc1ccc2oc(=O)[nH]c2c1` (centres unmarked) [II-12, N4-(benzo[d]oxazol-2(3H)-on-5-yl)-N2-(6-(3-methylpiperazin-1-yl)pyridin-3-yl)-5-methylpyrimidine-2,4-diamine] was run?
The IC50 was less than 500 nM.

With `Cc1cnc(Nc2ccc(N3CCN(C)CC3)nc2)nc1Nc1ccc2oc(=O)[nH]c2c1` [II-13, N4-(benzoxazolin-2-on-5-yl)-N2-[2-(4-methylpiperazin-1-yl)pyridin-5-yl]-5-methylpyrimidine-2,4-diamine] as the compound, how does the IC50 read?
The IC50 was less than 500 nM.

How did the IC50 turn out when `CN1CCN(c2ccc(Nc3ncc(F)c(Nc4ccc5oc(=O)[nH]c5c4)n3)cn2)CC1` [II-14, N4-(benzo[d]oxazol-2(3H)-on-5-yl)-N2-[2-(4-methylpiperazin-1-yl)pyridin-5-yl]-5-fluoropyrimidine-2,4-diamine] was run?
The IC50 was less than 500 nM.

Same assay, conditions: tested under conditions described in Example 3 (IL-2 stimulated human primary T-cell proliferation); read-out: ability to inhibit JAK3 activity, IC50 range (Table V)

Which IC50 does the source give for `Cc1cnc(Nc2ccc(N3CCN(C)CC3)nc2)nc1Nc1ccc2[nH]c(=O)[nH]c2c1` [II-15, N4-(benzimidazolin-2-on-5-yl)-N2-[2-(4-methylpiperazin-1-yl)pyridin-5-yl]-5-methylpyrimidine-2,4-diamine] here?
Its IC50 is less than 500 nM.

With `CN1CCN(c2ccc(Nc3ncc(F)c(Nc4ccc5[nH]c(=O)[nH]c5c4)n3)cn2)CC1` [II-16, N4-(benzimidazolin-2-on-5-yl)-N2-[2-(4-methylpiperazin-1-yl)pyridin-5-yl]-5-fluoropyrimidine-2,4-diamine] as the compound, how does the IC50 read?
The IC50 was less than 500 nM.

`Cc1cnc(Nc2ccc(N3CCOCC3)nc2)nc1Nc1ccc2oc(=O)[nH]c2c1` [II-17, N4-(benzo[d]oxazol-2(3H)-on-5-yl)-N2-((2-morpholinyl)pyridin-5-yl)-5-methylpyrimidine-2,4-diamine] was tested. Which IC50 did it give?
Its IC50 is less than 500 nM.

For `O=c1[nH]c2cc(Nc3nc(Nc4ccc(N5CCOCC5)nc4)ncc3F)ccc2o1` [II-18, N4-(benzo[d]oxazol-2(3H)-on-5-yl)-N2-((2-morpholinyl)pyridin-5-yl)-5-fluoropyrimidine-2,4-diamine], which IC50 is on record?
The IC50 was less than 500 nM.
